According to patent US7763441B2, “Modulators of gluconeogenesis” (Wyeth, priority 2006, dated 2010):
Like-named read-outs stand apart in the source and are kept apart here.

Experiments:
p38 = target: T1, p38 (Rattus norvegicus, UniProt P70618); assay: Western blot of p38 phosphorylation in serum starved H4IIE cells; format: cell-based; details: 2 hours
T1 construct: addition of cAMP to serum starved H4IIE cells for 2 hours leads to an increase in the phosphorylation of p38; endogenous in cells; host or cells: H4IIE rat hepatoma cells
T1 sequence (P70618 whole entry): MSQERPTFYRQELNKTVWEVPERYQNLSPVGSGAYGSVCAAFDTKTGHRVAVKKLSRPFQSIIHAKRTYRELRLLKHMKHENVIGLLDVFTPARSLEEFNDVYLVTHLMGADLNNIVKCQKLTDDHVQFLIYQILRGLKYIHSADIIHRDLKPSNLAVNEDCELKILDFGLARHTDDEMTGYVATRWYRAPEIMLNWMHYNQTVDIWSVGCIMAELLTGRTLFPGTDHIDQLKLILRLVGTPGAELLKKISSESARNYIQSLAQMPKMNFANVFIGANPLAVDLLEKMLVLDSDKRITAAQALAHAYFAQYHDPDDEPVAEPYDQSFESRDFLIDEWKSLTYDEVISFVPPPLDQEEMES
Procedure: (§1) Panel A is a Western blot of H4IIE cells starved for 6 hours and then treated as indicated by the chart for 2 hours. […] is a specific p38 chemical inhibitor. LPS is included as a positive control of p38 activation.
(§2) FIG. 7A includes a Western blot probed with anti-p38 or anti-phosphor-p38 antibodies (Cell Signaling Technology) at a 1:1000 dilution.

G6P and PEPCK expression = details: rat hepatoma cells or primary hepatocytes (Lochhead et al. 2000); cited from earlier work
DUSP4 mRNA = details: H4IIE, AICAR
Excerpt: (§3) As in FIG. 2, the anti-tubulin blot is a loading control.
(§4) Taqman was utilized since the DUSP4 probe set on the RAE430 2.0 array was not as sensitive as the DUSP4 set on the MOE430 2.0 array.

[1] = system: rat DUSP4 promoter EGR1 site; details: H4IIE, AICAR 2 or 6 hours
Procedure: Arrows indicate sites of primers used for chromatin immunoprecipitation assay (−72 to −261 bp from the transcriptional start site).
To cross-link protein and DNA, formaldehyde was added at a 1% (vol/vol) concentration to H4IIE cells in a 100 mm dish. Fixation proceeded for 10 min at room temperature with gentle shaking and was stopped with the addition of glycine to a final concentration of 0.125M, and then the mixture was incubated at room temperature for 5 min. The cells were then washed twice with cold phosphate-buffered saline (PBS), harvested, and washed once with PBS containing PMSF. The cell pellet was lysed with immunoprecipitation assay lysis buffer (150 mM NaCl, 1% NP-40, 0.5% deoxycholate, 0.1% sodium dodecyl sulfate [SDS], 50 mM Tris [pH 8], 5 mM EDTA and protease inhibitors [1 mM PMSF, 10 μg of aprotinin/ml, 10 μg of leupeptin/ml]) and incubated on ice for 10 min. The resulting lysate was sonicated to give chromatin of an average length of 600 to 1,000 bp. The lysate was then microcentrifuged at 14,000 rpm for 10 min at 4° C. The lysate was then precleared with 50 μl of protein A beads (IPA 400; Repligen) for 15 min. Immunoprecipitations were performed overnight with 2 μg of antibody in a total volume of 500 μl at 4° C. […] A 5 μl aliquot was analyzed by PCR with Vent polymerase (NEB). […]

EGR1 expression = details: H4IIE, AICAR
Procedure: The anti-tubulin blot is a loading control.
(§5) Double-stranded cDNA was synthesized starting with 5 μg of total RNA from the cells using the SuperScript System (Invitrogen, Carlsbad, Calif.). The cDNA was purified by filtration through Multiscreen filter plate (Millipore), and transcribed in vitro using T7 RNA polymerase (Epicentre, Madison, Wis.) and biotinylated nucleotides (Perkin-Elmer, Boston, Mass.). Hybridization buffer containing the spike pool reagent was added to each of the fragmented cRNA mixtures and each sample was hybridized to the Mouse Genome 430 2.0 array ([…]) or Rat Genome 230 2.0 array (RAE230) (Affymetrix, Santa Clara) at 45° C. for 18 hours as recommended by the manufacturer. The hybridized chips were washed and stained using Affymetrix Fluidics Station 450 and the EukGE-WS2v4—450 protocol as recommended by the manufacturer. The staining was performed using streptavidin-phycoerythrin conjugate (SAPE; Molecular Probes, Eugene, Oreg.), followed by biotinylated antibody against streptavidin (Vector Laboratories, Burlingame, Calif.), and then SAPE. The chips were scanned using an Affymetrix Genechip Scanner and .cel files were generated with Affymetrix Microarray Suite 5.0 (MAS 5.0) software.
Total RNA was isolated from these cells and hybridized on the RAE430 2.0 array and analyzed in the same manner as the AML12 cells.

Fao hepatoma cells = assay: Glucose production assay in Fao cells; format: cell-based; details: cAMP plus dexamethasone, 500 μM AICAR
Procedure: For the experiment shown in panel A, Fao cells were transfected with either EGR1 or DUSP4 siRNA Smartpools. […] The cells were then cultured with phenol-red and glucose free RPMI1640 with 20 mM lactate and 2mM pyruvate. After 3 hours the media was collected and glucose output was determined. The data are presented as relative glucose production with the untreated transfected cells' glucose output set as 1. The asterisk indicates key changes between samples. P-values of all changes are ≦0.01 as determined by T-test. Panel B contains Western blots of EGR1 and DUSP4 or representative samples from the glucose production assay following transfection with the indicated siRNA Smartpools. The tubulin blot is included as a loading control.
1 million Fao cells cultured in RPMI1640 with 10% FCS were transfected with siGenome SMARTpool reagents for EGR1 (#M-100247-00), DUSP4 (#M-098966-00), or siCONTROL Non-Targeting siRNA (Dharmacon) using Optifect (Invitrogen) at 25 nM final concentration. […] Medium was collected 5 hours later and subjected to glucose measurement using the Amplex® Red Glucose/Glucose Oxidase Assay Kit (Molecular Probes). Cells were lysed and protein concentration was determined. The glucose output rate was normalized by cellular protein concentration and expressed as μg glucose/mg protein/5 hr. […]

DUSP4 message = details: AML12, 500 μM AICAR
Procedure: (§6) Each gene is represented by a single row and each sample, in triplicate at each time point, by a column. […] The mean expression±STD of DUSP4 (qualifier #1428834_at) and EGR1 (qualifier #1417065_at) are illustrated graphically as well as highlighted in yellow on the cluster.
(§7) AML12 cells were maintained in DMEM/F12 medium containing 10% FCS, […], 5 ng/ml selenium and 40 ng/ml dexamethasone.
as §5
(§8) Using normalized data, after removing lowly expressed genes, we performed ANOVA analysis.

EGR1 message = details: AML12, 500 μM AICAR
Procedure: as §6, §7, §5, §8

rat PEPCK promoter = assay: PEPCK-SEAP reporter assay in H4IIE cells; format: cell-based
Procedure: FIG. 5 schematically depicts the effects of EGR1 and DUSP4 expression levels on PEPCK promoter activity. For the experiments shown in panels A and B, H4IIE hepatocytes were transfected with the PEPCK-SEAP reporter plasmid and either DUSP4 or EGR1 expression plasmids or DUSP4 or EGR1 siRNA Smartpools. 24 hours after transfection the media were changed to 0.5%FBS/DMEM for 5 hours. […] Panel A depicts the effects of EGR1 modulation on PEPCK promoter activity; panel B depicts the effects of DUSP4 modulation on PEPCK promoter activity.
as §1
The rat PEPCK promoter (−548 to +73) was amplified from rat genomic DNA using primers 5′-[…]-3′ (SEQ ID NO:8) and 5′-[…]-3′ (SEQ ID NO:9) (Xu et al. (2003)) J. Biol. Chem. 278:30187-30192). The human G6P promoter (−1227 to +57) was amplified from human genomic DNA using primers: 5′-[…]-3′ (SEQ ID NO:10) and 5′-[…]-3′ (SEQ ID NO:11). The promoters were subsequently cloned into XhoI and HindIII sites of pSEAP-BASIC vector (Clontech).
H4IIE cells were seeded in 24-well plates and transfected at 90% confluence using Tfx-50 Reagent (Promega). 0.9 μg of each SEAP reporter and 0.2 μg of pCMV-β-gal (BD Biosciences) were included. 0.4 μg of pCMV-XL5-human-DUSP4 (NM_001394, Origene) or pCMV-Sport6-human EGR1 (BC073983, Open Biosystems), or pMEV2HA-P38-WT and P38-EE (Biomyx), or empty pCMV-Sport6 were included. SiGenome Smartpool reagents were included at […]. […] 60 μl of the media was utilized for the SEAP assay (Great EscAPe SEAP Kit, BD Biosciences) and cell lysate was used for β-gal assay (Luminescent β-galactosidase detection kit, BD Biosciences).

JNK = details: H4IIE cells, data not shown
Excerpt: Members of the DUSP family show differing specificities for the MAPK family of kinases. DUSP4 has been previously shown to dephosphorylate and inactivate the MAPK family members ERK and JNK, but not p38.
as §2

DUSP4 protein = details: H4IIE
Procedure: as §3
Lysates were prepared with a buffer containing 20 mM Tris (pH 7.5), 150 mM NaCl, 1 mM EDTA, 1 mM EGTA, 1% Triton X-100, 2.5 mM sodium pyrophosphate, 1 mM β-glycerophosphate, 1 mM sodium vanadate, and 1 μg of leupeptin/ml. 20 μg of lysate for each sample was run on NuPAGE 10% polyacrylamide bis/tris gels (Invitrogen) and transferred to PVDF membrane. Following blocking with 5% milk in TBS, anti-EGR1 (SC-110, Santa Cruz) at 1:1000 or anti alpha-tubulin (Abcam) at 1:2000 was blotted in TBS with 0.1% Tween. Goat anti-mouse HRP (Jackson Immuno-Research) was used at 1:5000 and blots were visualized by using enhanced chemiluminescence (NEN).
as §4

EGR1 = details: Bauer et al. 2005; cited from earlier work

## NC(=O)c1ncn([C@@H]2O[C@H](CO)[C@@H](O)[C@H]2O)c1N [AICAR]
p38
  cAMP-induced phosphorylation of p38 (Western blot): inhibited
G6P and PEPCK expression
  Expression of G6P and PEPCK: inhibits expression G6P and PEPCK
DUSP4 mRNA; 2 hours
  DUSP4 message increase: 20 fold
DUSP4 mRNA; 6 hours
  DUSP4 message increase: 4 fold
DUSP4 mRNA; 24 hours
  DUSP4 message increase: 4 fold
[1]
  EGR1 site of DUSP4 promoter amplified after anti-EGR1 chromatin immunoprecipitation (189 bp PCR product): amplified
EGR1 expression; 2 hours
  EGR1 expression increase relative to control: 6 fold
EGR1 expression; 6 hours
  EGR1 expression increase relative to control: 5 fold
EGR1 expression; 24 hours
  EGR1 expression increase relative to control: 3 fold
Fao hepatoma cells
  Glucose output after inhibition, distance from untreated levels: ≤ 30%
DUSP4 message; 2 hours
  DUSP4 message increase relative to untreated controls: 4 fold
DUSP4 message; 6 hours
  DUSP4 message increase relative to untreated controls: 6 fold
DUSP4 message; 24 hours
  DUSP4 message increase relative to untreated controls: 5 fold
EGR1 message; 2 hours
  EGR1 increase relative to control: 3 fold
EGR1 message; 6 hours
  EGR1 increase relative to control: 3 fold
EGR1 message; 24 hours
  EGR1 increase relative to control: 2 fold
Rat PEPCK promoter; 100 μM AICAR by itself
  Inhibition of PEPCK activation at low AICAR concentration: not sufficient to inhibit PEPCK activation
Rat PEPCK promoter; 100 μM AICAR, without exogenous EGR1
  PEPCK transcription (activation): 12 fold
Rat PEPCK promoter; AICAR, control siRNA included
  Repression of cAMP and dexamethasone activation of PEPCK reporter: fully repressed
Rat PEPCK promoter; FIG. 7B
  Effect on cAMP activation of the PEPCK promoter: repress cAMP activation of the PEPCK promoter
Rat PEPCK promoter; PEPCK-SEAP, AICAR 500 μM or DUSP4 expression vector
  Inhibition of cAMP and dexamethasone activation of the PEPCK promoter: approximately 36 fold
JNK
  JNK activity: not inhibited
DUSP4 protein; AICAR
  Time of AICAR treatment within which DUSP4 is induced: ≤ 2 h
DUSP4 protein; AICAR time course, decrease to more basal levels at 12 hours
  DUSP4 protein level (Western blot): increase of DUSP4 protein at 2 and 6 hours

## CCCCCCCCCCCCCC(=O)O[C@@H]1[C@@H](C)[C@@]2(O)[C@@H](C=C(CO)C[C@]3(O)C(=O)C(C)=C[C@@H]23)[C@@H]2C(C)(C)[C@]12OC(C)=O [TPA, 12-O-tetradecanoylphorbol-13-acetate]
EGR1
  EGR1 biosynthesis: strongly upregulates EGR1 biosynthesis

## SB205830
p38
  cAMP-induced phosphorylation of p38 (Western blot): inhibited
